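Assay format: 96-well plates, 48-hour exposure. TGI is the concentration that stops growth completely.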
What was measured:
Experiment in all cases: NCI-60 cell line screen, 48 h
U251 CNS = system: U251 CNS
M14 melanoma = system: M14 melanoma
COLO 205 colon = system: COLO 205 colon
XF 498 CNS = system: XF 498 CNS
MCF7 breast = system: MCF7 breast
SN12C renal = system: SN12C renal
IGROV1 ovarian = system: IGROV1 ovarian
HCC-2998 colon = system: HCC-2998 colon
DU-145 prostate = system: DU-145 prostate
SW-620 colon = system: SW-620 colon
SK-MEL-28 melanoma = system: SK-MEL-28 melanoma
DMS 273 small cell lung = system: DMS 273 small cell lung
MDA-MB-435 = system: MDA-MB-435
NCI-H226 lung = system: NCI-H226 lung
HL-60(TB) leukemia = system: HL-60(TB) leukemia
SF-539 CNS = system: SF-539 CNS
A498 renal = system: A498 renal
EKVX NSCLC = system: EKVX NSCLC
OVCAR-4 ovarian = system: OVCAR-4 ovarian
SF-295 CNS = system: SF-295 CNS
SR leukemia = system: SR leukemia
SK-OV-3 ovarian = system: SK-OV-3 ovarian
ACHN renal = system: ACHN renal
OVCAR-5 ovarian = system: OVCAR-5 ovarian
HT29 colon = system: HT29 colon
OVCAR-3 ovarian = system: OVCAR-3 ovarian
MOLT-4 leukemia = system: MOLT-4 leukemia
HOP-92 NSCLC = system: HOP-92 NSCLC
M19-MEL melanoma = system: M19-MEL melanoma
DLD-1 colon = system: DLD-1 colon
LXFL 529 NSCLC = system: LXFL 529 NSCLC
UACC-62 melanoma = system: UACC-62 melanoma
SK-MEL-2 melanoma = system: SK-MEL-2 melanoma
KM12 colon = system: KM12 colon
RPMI-8226 leukemia = system: RPMI-8226 leukemia
NCI-H460 lung = system: NCI-H460 lung
TK-10 renal = system: TK-10 renal
HOP-18 NSCLC = system: HOP-18 NSCLC
UACC-257 melanoma = system: UACC-257 melanoma
K-562 leukemia = system: K-562 leukemia
SNB-75 CNS = system: SNB-75 CNS
HS 578T breast = system: HS 578T breast
PC-3 prostate = system: PC-3 prostate
CCRF-CEM leukemia = system: CCRF-CEM leukemia
SF-268 CNS = system: SF-268 CNS
SK-MEL-5 melanoma = system: SK-MEL-5 melanoma
HCT-116 colon = system: HCT-116 colon
HCT-15 colon = system: HCT-15 colon
A549 NSCLC = system: A549 NSCLC
OVCAR-8 ovarian = system: OVCAR-8 ovarian
786-0 renal = system: 786-0 renal
CAKI-1 renal = system: CAKI-1 renal
MDA-N = system: MDA-N
NCI/ADR-RES ovarian = system: NCI/ADR-RES ovarian
MDA-MB-231 breast = system: MDA-MB-231 breast
NCI-H23 lung = system: NCI-H23 lung
DMS 114 small cell lung = system: DMS 114 small cell lung
SNB-19 CNS = system: SNB-19 CNS
MALME-3M melanoma = system: MALME-3M melanoma
BT-549 breast = system: BT-549 breast
HOP-62 NSCLC = system: HOP-62 NSCLC
RXF 393 renal = system: RXF 393 renal
UO-31 renal = system: UO-31 renal
NCI-H522 lung = system: NCI-H522 lung
LOX IMVI melanoma = system: LOX IMVI melanoma

`COc1cc(C(=O)c2cocc2C(=O)c2ccc3c(c2)OCO3)cc(OC)c1OC` was tested, and the TGI (U251 CNS) was 8.35 µM, the TGI (M14 melanoma) was 33.5 µM and the TGI (COLO 205 colon) was 26.5 µM. For the same compound, the TGI (XF 498 CNS) was 32.1 µM, the TGI (MCF7 breast) was > 100 µM and the TGI (SN12C renal) was 56.1 µM. It also gave a TGI (IGROV1 ovarian) of 48.5 µM, a TGI (HCC-2998 colon) of 16.9 µM and a TGI (DU-145 prostate) of 21.2 µM. The TGI (SW-620 colon) was > 57.8 µM, the TGI (SK-MEL-28 melanoma) was > 49.5 µM and the TGI (DMS 273 small cell lung) was > 100 µM. It also gave a TGI (MDA-MB-435) of 0.955 µM, a TGI (NCI-H226 lung) of 21.1 µM and a TGI (HL-60(TB) leukemia) of 2.06 µM. The TGI (SF-539 CNS) was 1.45 µM, the TGI (A498 renal) was 26.2 µM and the TGI (EKVX NSCLC) was > 58.3 µM. For the same compound, the TGI (OVCAR-4 ovarian) was > 54.3 µM, the TGI (SF-295 CNS) was 2.48 µM and the TGI (SR leukemia) was > 56.2 µM. For the same compound, the TGI (SK-OV-3 ovarian) was 47.3 µM, the TGI (ACHN renal) was > 48.4 µM and the TGI (OVCAR-5 ovarian) was > 66.3 µM. The TGI (HT29 colon) was 5.98 µM, the TGI (OVCAR-3 ovarian) was 8.15 µM and the TGI (MOLT-4 leukemia) was > 74.7 µM. The TGI (HOP-92 NSCLC) was 35.4 µM, the TGI (M19-MEL melanoma) was > 100 µM and the TGI (DLD-1 colon) was > 100 µM. The TGI (LXFL 529 NSCLC) was > 31.6 µM, the TGI (UACC-62 melanoma) was > 47.3 µM and the TGI (SK-MEL-2 melanoma) was > 41.7 µM. For the same compound, the TGI (KM12 colon) was 59.1 µM, the TGI (RPMI-8226 leukemia) was 32.3 µM and the TGI (NCI-H460 lung) was 23.4 µM. For the same compound, the TGI (TK-10 renal) was 47.2 µM, the TGI (HOP-18 NSCLC) was > 100 µM and the TGI (UACC-257 melanoma) was > 45.7 µM. The TGI (K-562 leukemia) was > 94.9 µM, the TGI (SNB-75 CNS) was 10.4 µM and the TGI (HS 578T breast) was 5.27 µM. The TGI (PC-3 prostate) was > 35.9 µM, the TGI (CCRF-CEM leukemia) was > 51.6 µM and the TGI (SF-268 CNS) was 45 µM. It also gave a TGI (SK-MEL-5 melanoma) of 25.5 µM, a TGI (HCT-116 colon) of 24.4 µM and a TGI (HCT-15 colon) of 35.3 µM. For the same compound, the TGI (A549 NSCLC) was > 68 µM, the TGI (OVCAR-8 ovarian) was 30 µM and the TGI (786-0 renal) was 39.7 µM. The TGI (CAKI-1 renal) was 35.7 µM, the TGI (MDA-N) was 0.311 µM and the TGI (NCI/ADR-RES ovarian) was 1.3 µM. For the same compound, the TGI (MDA-MB-231 breast) was 48.5 µM, the TGI (NCI-H23 lung) was 26.2 µM and the TGI (DMS 114 small cell lung) was > 100 µM. For the same compound, the TGI (SNB-19 CNS) was 35.3 µM, the TGI (MALME-3M melanoma) was 29.1 µM and the TGI (BT-549 breast) was 0.552 µM. For the same compound, the TGI (HOP-62 NSCLC) was 31.3 µM, the TGI (RXF 393 renal) was 4.43 µM and the TGI (UO-31 renal) was 33.9 µM. It also gave a TGI (NCI-H522 lung) of 1.85 µM and a TGI (LOX IMVI melanoma) of 30 µM.
